In the CheMixHub viscosity set:

Test: xn = mol fraction of the nth substance listed

C1CCCCC1 + c1ccccc1
Details	viscosity [mPa·s]
293.15 K, 101 kPa, x2 = 0.094	0.893
293.15 K, 101 kPa, x2 = 0.251	0.762
293.15 K, 101 kPa, x2 = 0.418	0.684
293.15 K, 101 kPa, x2 = 0.582	0.649
293.15 K, 101 kPa, x2 = 0.736	0.628
293.15 K, 101 kPa, x2 = 0.891	0.636
293.15 K, 101.32 kPa, x1 = 0.069	0.634
293.15 K, 101.33 kPa, x1 = 0.4	0.6789
293.65 K, 101.33 kPa, x1 = 0.1	0.6528
293.85 K, 101.33 kPa, x1 = 0.3	0.6581
294.35 K, 101.33 kPa, x1 = 0.7	0.7579
294.55 K, 101.33 kPa, x1 = 0.85	0.8416
294.85 K, 101.33 kPa, x1 = 0.6	0.7104
296.05 K, 101.33 kPa, x1 = 0.2	0.631
298 K, 101 kPa, x1 = 0.077	0.654
298 K, 101 kPa, x1 = 0.1226	0.654
298 K, 101 kPa, x1 = 0.1659	0.657
298 K, 101 kPa, x1 = 0.1692	0.66
298 K, 101 kPa, x1 = 0.2368	0.665
298 K, 101 kPa, x1 = 0.2613	0.669
298 K, 101 kPa, x1 = 0.2942	0.678
298 K, 101 kPa, x1 = 0.2951	0.674
298 K, 101 kPa, x1 = 0.6686	0.787
298.1 K, 101 kPa, x1 = 0.2	0.581
298.1 K, 101 kPa, x1 = 0.4	0.588
298.1 K, 101 kPa, x1 = 0.5	0.606
298.1 K, 101 kPa, x1 = 0.6	0.629
298.1 K, 101 kPa, x1 = 0.8	0.702
298.15 K, 100 kPa, x2 = 0.2504	0.7321
298.15 K, 100 kPa, x2 = 0.4997	0.6299
298.15 K, 100 kPa, x2 = 0.7497	0.575
298.15 K, 101 kPa, x1 = 0.0407	0.5938
298.15 K, 101 kPa, x1 = 0.0977	0.5871
298.15 K, 101 kPa, x1 = 0.1489	0.5839
298.15 K, 101 kPa, x1 = 0.1991	0.581
298.15 K, 101 kPa, x1 = 0.2609	0.5691
298.15 K, 101 kPa, x1 = 0.3011	0.5852
298.15 K, 101 kPa, x1 = 0.3095	0.574
298.15 K, 101 kPa, x1 = 0.3586	0.5843
298.15 K, 101 kPa, x1 = 0.3991	0.5953
298.15 K, 101 kPa, x1 = 0.4089	0.5884
298.15 K, 101 kPa, x1 = 0.4513	0.6073
298.15 K, 101 kPa, x1 = 0.4887	0.5861
298.15 K, 101 kPa, x1 = 0.4987	0.6127
298.15 K, 101 kPa, x1 = 0.5798	0.6263
298.15 K, 101 kPa, x1 = 0.5965	0.6256
298.15 K, 101 kPa, x1 = 0.6017	0.6403
298.15 K, 101 kPa, x1 = 0.6481	0.6489
298.15 K, 101 kPa, x1 = 0.6986	0.6783
298.15 K, 101 kPa, x1 = 0.7128	0.6954
298.15 K, 101 kPa, x1 = 0.8006	0.7301
298.15 K, 101 kPa, x1 = 0.8959	0.7929
298.15 K, 101 kPa, x1 = 0.9313	0.8219
298.15 K, 101 kPa, x1 = 0.9638	0.8484
298.15 K, 101 kPa, x2 = 0.0136	0.8732
298.15 K, 101 kPa, x2 = 0.1	0.7978
298.15 K, 101 kPa, x2 = 0.1043	0.8022
298.15 K, 101 kPa, x2 = 0.2	0.734
298.15 K, 101 kPa, x2 = 0.2011	0.7423
298.15 K, 101 kPa, x2 = 0.203	0.7292
298.15 K, 101 kPa, x2 = 0.2438	0.7115
298.15 K, 101 kPa, x2 = 0.3015	0.6869
298.15 K, 101 kPa, x2 = 0.31	0.6772
298.15 K, 101 kPa, x2 = 0.4	0.641
298.15 K, 101 kPa, x2 = 0.4038	0.6514
298.15 K, 101 kPa, x2 = 0.441	0.6283
298.15 K, 101 kPa, x2 = 0.5005	0.6313
298.15 K, 101 kPa, x2 = 0.549	0.6011
298.15 K, 101 kPa, x2 = 0.6	0.593
298.15 K, 101 kPa, x2 = 0.6032	0.6107
298.15 K, 101 kPa, x2 = 0.611	0.595
298.15 K, 101 kPa, x2 = 0.7006	0.5985
298.15 K, 101 kPa, x2 = 0.733	0.5877
298.15 K, 101 kPa, x2 = 0.7848	0.574
298.15 K, 101 kPa, x2 = 0.7996	0.6
298.15 K, 101 kPa, x2 = 0.8	0.587
298.15 K, 101 kPa, x2 = 0.883	0.5923
298.15 K, 101 kPa, x2 = 0.9011	0.609
298.15 K, 101.33 kPa, x1 = 0.0984	0.582
298.15 K, 101.33 kPa, x1 = 0.1986	0.576
298.15 K, 101.33 kPa, x1 = 0.3009	0.579
298.15 K, 101.33 kPa, x1 = 0.4008	0.589
298.15 K, 101.33 kPa, x1 = 0.4989	0.609
298.15 K, 101.33 kPa, x1 = 0.552	0.623
298.15 K, 101.33 kPa, x1 = 0.6007	0.639
298.15 K, 101.33 kPa, x1 = 0.6478	0.653
298.15 K, 101.33 kPa, x1 = 0.7475	0.699
298.15 K, 101.33 kPa, x1 = 0.8011	0.733
298.15 K, 101.33 kPa, x1 = 0.9022	0.803
298.15 K, 101.33 kPa, x2 = 0.1282	0.7622
298.15 K, 101.33 kPa, x2 = 0.15	0.7725
298.15 K, 101.33 kPa, x2 = 0.2174	0.7122
298.15 K, 101.33 kPa, x2 = 0.2438	0.7115
298.15 K, 101.33 kPa, x2 = 0.3364	0.6599
298.15 K, 101.33 kPa, x2 = 0.35	0.6571
298.15 K, 101.33 kPa, x2 = 0.4874	0.6124
298.15 K, 101.33 kPa, x2 = 0.5	0.612
298.15 K, 101.33 kPa, x2 = 0.549	0.6011
298.15 K, 101.33 kPa, x2 = 0.647	0.5879
298.15 K, 101.33 kPa, x2 = 0.65	0.5853
298.15 K, 101.33 kPa, x2 = 0.7814	0.583
298.15 K, 101.33 kPa, x2 = 0.7848	0.574
298.15 K, 101.33 kPa, x2 = 0.9	0.5761
298.15 K, 101.33 kPa, x2 = 0.9033	0.5926
303.15 K, 101 kPa, x1 = 0.0989	0.5467
303.15 K, 101 kPa, x1 = 0.1983	0.5433
303.15 K, 101 kPa, x1 = 0.3019	0.5485
303.15 K, 101 kPa, x1 = 0.3998	0.5602
303.15 K, 101 kPa, x1 = 0.5035	0.5792
303.15 K, 101 kPa, x1 = 0.6015	0.6041
303.15 K, 101 kPa, x1 = 0.7002	0.6378
303.15 K, 101 kPa, x1 = 0.7987	0.6822
303.15 K, 101 kPa, x1 = 0.8977	0.7447
303.15 K, 101 kPa, x2 = 0.094	0.755
303.15 K, 101 kPa, x2 = 0.1043	0.7412
303.15 K, 101 kPa, x2 = 0.2011	0.6892
303.15 K, 101 kPa, x2 = 0.251	0.658
303.15 K, 101 kPa, x2 = 0.3015	0.6418
303.15 K, 101 kPa, x2 = 0.4038	0.6099
303.15 K, 101 kPa, x2 = 0.418	0.594
303.15 K, 101 kPa, x2 = 0.5005	0.5913
303.15 K, 101 kPa, x2 = 0.582	0.566
303.15 K, 101 kPa, x2 = 0.6032	0.5734
303.15 K, 101 kPa, x2 = 0.7006	0.5632
303.15 K, 101 kPa, x2 = 0.736	0.55
303.15 K, 101 kPa, x2 = 0.7996	0.5634
303.15 K, 101 kPa, x2 = 0.891	0.555
303.15 K, 101 kPa, x2 = 0.9011	0.5689
303.45 K, 101.33 kPa, x1 = 0.7	0.6645
303.55 K, 101.33 kPa, x1 = 0.5	0.6035
303.65 K, 101.33 kPa, x1 = 0.4	0.5874
303.75 K, 101.33 kPa, x1 = 0.3	0.5794
304.25 K, 101.33 kPa, x1 = 0.85	0.7288
304.55 K, 101.33 kPa, x1 = 0.6	0.6189
306.35 K, 101.33 kPa, x1 = 0.2	0.5538
308.15 K, 101 kPa, x2 = 0.1043	0.6842
308.15 K, 101 kPa, x2 = 0.2011	0.6409
308.15 K, 101 kPa, x2 = 0.3015	0.5971
308.15 K, 101 kPa, x2 = 0.4038	0.5697
308.15 K, 101 kPa, x2 = 0.5005	0.5535
308.15 K, 101 kPa, x2 = 0.6032	0.537
308.15 K, 101 kPa, x2 = 0.7006	0.5274
308.15 K, 101 kPa, x2 = 0.7996	0.5266
308.15 K, 101 kPa, x2 = 0.9011	0.5325
312.15 K, 101.33 kPa, x1 = 0.1	0.5154
312.65 K, 101.33 kPa, x1 = 0.4	0.5272
312.65 K, 101.33 kPa, x1 = 0.5	0.5397
312.75 K, 101.33 kPa, x1 = 0.3	0.5184
312.85 K, 101.33 kPa, x1 = 0.6	0.5535
313.15 K, 101 kPa, x2 = 0.094	0.651
313.15 K, 101 kPa, x2 = 0.1043	0.6342
313.15 K, 101 kPa, x2 = 0.2011	0.5944
313.15 K, 101 kPa, x2 = 0.251	0.574
313.15 K, 101 kPa, x2 = 0.3015	0.5574
313.15 K, 101 kPa, x2 = 0.4038	0.5315
313.15 K, 101 kPa, x2 = 0.418	0.53
313.15 K, 101 kPa, x2 = 0.5005	0.5172
313.15 K, 101 kPa, x2 = 0.582	0.499
313.15 K, 101 kPa, x2 = 0.6032	0.5037
313.15 K, 101 kPa, x2 = 0.7006	0.494
313.15 K, 101 kPa, x2 = 0.736	0.489
313.15 K, 101 kPa, x2 = 0.7996	0.4952
313.15 K, 101 kPa, x2 = 0.891	0.49
313.15 K, 101 kPa, x2 = 0.9011	0.4973
313.25 K, 101.33 kPa, x1 = 0.2	0.5122
314.15 K, 101.33 kPa, x1 = 0.85	0.6325
315.75 K, 101.33 kPa, x1 = 0.7	0.5676
322.55 K, 101.33 kPa, x1 = 0.6	0.5006
322.85 K, 101.33 kPa, x1 = 0.85	0.567
322.95 K, 101.33 kPa, x1 = 0.1	0.4571
322.95 K, 101.33 kPa, x1 = 0.4	0.4739
323.15 K, 100 kPa, x2 = 0.2504	0.5258
323.15 K, 100 kPa, x2 = 0.4997	0.4555
323.15 K, 100 kPa, x2 = 0.7497	0.4303
323.15 K, 101 kPa, x2 = 0.094	0.567
323.15 K, 101 kPa, x2 = 0.251	0.506
323.15 K, 101 kPa, x2 = 0.418	0.471
323.15 K, 101 kPa, x2 = 0.582	0.445
323.15 K, 101 kPa, x2 = 0.736	0.442
323.15 K, 101 kPa, x2 = 0.891	0.438
